# Read-outs that look alike come from different tables or passages of the source.
# Key:
# [1] = DZP permeation through blank filter; conditions: S from 1 to 6, 30/70 GF/AB vehicle, blank filters
# [2] = cited from earlier work
# [3] = Diffusion studies through silicone membranes (Franz diffusion cell); conditions: for Steady State Flux / Time Lag / Transference: 75 μm silicone membrane
# [4] = Comparison of intranasal with published rectal diazepam concentration-time course
# [5] = Nasal administration of diazepam and midazolam preparations in two healthy volunteers; conditions: for Nasal Discomfort / Nasal Discomfort (maximum): subject self-rating, IN 5 mg dose, n = 2
# Protocol: Approximately 0.5 ml (2.5 mg) was dripped into each nostril over a period of 30 seconds.
# [6] = rectal, published data (Cloyd et al, Epilepsia 1998); cited from earlier work
# [7] = system: patients with SE; conditions: intravenous, given within 30 minutes of the onset of SE; cited from earlier work
# [8] = Lipid-solubility (octanol/water ratio) of benzodiazepines; conditions: from Table 1
# [9] = in vivo; cited from earlier work
# [10] = cited from earlier work; remark: listed apart in the source
# [11] = clinical; conditions: human, plasma, inhaled or intranasal, 5 mg
# [12] = system: MDCKII-WT cell monolayer
# [13] = system: MDCKII-WT cells
# Protocol: (§1) Maden Darby Canine Kidney II wild type (MDCKII-WT) cells were seeded at 43,000 cells/cm^2 on six-well polyester membrane inserts (Transwell®) with a pore size of 0.4 μm. Cells were maintained in Dulbecco's modified Eagle's medium supplemented with 10% fetal bovine serum and 1% penicillin and streptomycin at 37° C. in a humidified incubator with 5% CO2. Media were changed every other day, and cell monolayers were cultured for 4 days before use.
# Viability of MDCKII-WT cells was measured by incubating the cells in suspension for 30, 60, and 120 min in various GF/buffer compositions at 37° C. Trypan blue dye was then added into the cell suspension, and incubated for 10 min. A sample was drawn from the suspension and spread on a hemocytometer, and counts of live (transparent) and dead (blue) cells were made.
# [14] = system: MDCKII-WT cell monolayer; conditions: GF 0 to 50 vol % in upstream vehicle
# [15] = system: MDCKII-WT cell monolayer; conditions: 0-50% GF with assay buffer, over 30 min
# Protocol: as §1
# [16] = buccal, 5 mg commercial parenteral MDZ, 8 healthy volunteers
# [17] = human, blood, other: intranasal, 5 mg
compound,measurement,setting,value
"CN1C(=O)CN=C(c2ccccc2)c2cc(Cl)ccc21 [DZP, diazepam]",steady state flux as a function of degree of saturation S,[1],increased linearly with increasing degree of saturation
same,time to peak concentrations,"[2]; rectal, adults",15 to 45 min
same,time to peak concentrations,"[2]; rectal, children",5 to 10 min
same,steady state flux as a function of degree of saturation S,"[3]; S=0.5-6.25, 50:50 GF/water, silicone membrane",increased nearly linearly with increasing degree of saturation
same,Steady State Flux,"[3]; S=1, 30% GF",0.823 ± 0.030 μg/(cm^2 · min)
same,Time Lag,"[3]; S=1, 30% GF",1.876 ± 0.165 min
same,Transference,"[3]; S=1, 30% GF",0.823 ± 0.030 μg/(cm^2 · min)
same,Steady State Flux,"[3]; S=1, 40% GF",0.826 ± 0.019 μg/(cm^2 · min)
same,Time Lag,"[3]; S=1, 40% GF",1.793 ± 0.020 min
same,Transference,"[3]; S=1, 40% GF",0.826 ± 0.019 μg/(cm^2 · min)
same,Steady State Flux,"[3]; S=1, 50% GF",0.824 ± 0.011 μg/(cm^2 · min)
same,Time Lag,"[3]; S=1, 50% GF",1.842 ± 0.119 min
same,Transference,"[3]; S=1, 50% GF",0.824 ± 0.011 μg/(cm^2 · min)
same,Steady State Flux,"[3]; S=3, 30% GF",2.309 ± 0.070 μg/(cm^2 · min)
same,Time Lag,"[3]; S=3, 30% GF",1.806 ± 0.135 min
same,Transference,"[3]; S=3, 30% GF",0.770 ± 0.023 μg/(cm^2 · min)
same,Steady State Flux,"[3]; S=3, 40% GF",2.310 ± 0.055 μg/(cm^2 · min)
same,Time Lag,"[3]; S=3, 40% GF",1.787 ± 0.091 min
same,Transference,"[3]; S=3, 40% GF",0.770 ± 0.018 μg/(cm^2 · min)
same,Steady State Flux,"[3]; S=3, 50% GF",2.321 ± 0.095 μg/(cm^2 · min)
same,Time Lag,"[3]; S=3, 50% GF",1.755 ± 0.134 min
same,Transference,"[3]; S=3, 50% GF",0.774 ± 0.032 μg/(cm^2 · min)
same,time to maximum concentration,"[4]; nasal, 5 mg",28 min
same,peak concentration,"[4]; rectally, published data adjusted from 15 mg to 5 mg assuming linear pharmacokinetics",128 ng/mL
same,Nasal Discomfort,[5],1.5
same,Nasal Discomfort (maximum),[5],6.8
same,time to maximum concentration,[6],45 min
"O=C1Nc2ccc(Cl)cc2C(c2ccccc2Cl)=NC1O (stereo not shown) [LZP, lorazepam]",time of peak plasma concentrations,[2]; rectal,75 min
same,effective in patients,[7],60-80%
same,lipid-solubility relative to DZP and MDZ,[8],⅕
same,Elimination T½,[9],480 to 1500 min
same,First-pass Effect,[9],Low
"Cc1ncc2n1-c1ccc(Cl)cc1C(c1ccccc1F)=NC2 [MDZ, midazolam]",Lipid-solubility (Octanol/Water Ratio),[10]; at pH = 3,at pH = 3: 34
same,Lipid-solubility (Octanol/Water Ratio),[10]; at pH = 7.5,at pH = 7.5: 475
same,time to pharmacological effect comparable to IV diazepam,[2]; IM injection,≤ 15 minutes
same,time to peak serum concentrations,[2]; IM,20 to 30 min
same,average bioavailability,[2]; [16],75%
same,time to peak serum concentrations,[2]; [16],15 to 90 min
same,bioavailability,[2]; rectal,15-30 % of a dose
same,nasal discomfort (in words),"[5]; IN commercial formulations: DZP solvents 40% propylene glycol and 10% ethanol, MDZ pH=3",significant discomfort
same,Tmax,[5]; [17],20 min
same,bioavailability,[5]; [17],67.5%
same,Nasal Discomfort,[5],1.0
same,Nasal Discomfort (maximum),[5],6.0
same,Elimination T½,[9],30 to 240 min
same,First-pass Effect,[9],High
same,Cmax,[11],64.6 ng/mL
same,bioavailability,[11],97.9%
tetrahydrofurfuryl alcohol polyethyleneglycol ether [GF],effect of GF content on permeability of mannitol,"[12]; GF/AB cosolvent mixtures, 0 to 50 vol % GF",permeability of mannitol increases
same,percentage mass transported of mannitol,"[12]; all GF/AB cosolvent systems (0-50 vol % GF), t=30 min",below 5%
same,viable cells,"[13]; 30 min treatment, GF up to 50 vol %",more than 90%
same,cell viability,"[13]; 1 h exposure, GF compositions above 30%",marked decease in cell viability
same,lethality,"[13]; 2 h exposure, GF compositions equal to or more than 20%",100%
same,effect of GF content on transference of DZP through MDCK cell monolayer,[14],transference increased with increasing GF content
same,TEER values,[15],> 100 Ω·cm2
